This note sets out measurements from ChEMBL document CHEMBL1130579, “Design and synthesis of curacin a analogs with varied side chain structures” (Bioorg Med Chem Lett, 1997).

Values after ≈ are worked out from the molar mass of the structure shown.

The subject of test [1] is NCI-H69. The experiment in a line: Compound was tested for its cytotoxicity against NCI-H69 human lung cancer cell line. Type of test: functional, cell-based.
Test [2] relates to PC-9. Description: Compound was tested for its cytotoxicity against PC-9 human lung cancer cell line. Type of test: functional, cell-based.
Test [3] deals with Tubulin alpha chain (Sus scrofa) (UniProt P02550). The experiment in a line: Compound was tested for percentage of tubulin polymerized at 50 uM dose of compound. The format is functional.
Test [4] has as its target T1, Tubulin alpha chain (Sus scrofa, UniProt P02550). The experiment in a line: Compound was tested for inhibitory activity against tubulin polymerization. Type of test: functional.
The test system of test [5] is WiDr. The experiment in a line: Compound was tested for its cytotoxicity against WiDr human colon cancer cell line. Type of test: functional, cell-based.
Test [6] deals with T1, Tubulin alpha chain. Description: Compound was evaluated for its anti tubulin activity.

Chain of Tubulin alpha chain (Sus scrofa) (P02550 whole entry, looked up): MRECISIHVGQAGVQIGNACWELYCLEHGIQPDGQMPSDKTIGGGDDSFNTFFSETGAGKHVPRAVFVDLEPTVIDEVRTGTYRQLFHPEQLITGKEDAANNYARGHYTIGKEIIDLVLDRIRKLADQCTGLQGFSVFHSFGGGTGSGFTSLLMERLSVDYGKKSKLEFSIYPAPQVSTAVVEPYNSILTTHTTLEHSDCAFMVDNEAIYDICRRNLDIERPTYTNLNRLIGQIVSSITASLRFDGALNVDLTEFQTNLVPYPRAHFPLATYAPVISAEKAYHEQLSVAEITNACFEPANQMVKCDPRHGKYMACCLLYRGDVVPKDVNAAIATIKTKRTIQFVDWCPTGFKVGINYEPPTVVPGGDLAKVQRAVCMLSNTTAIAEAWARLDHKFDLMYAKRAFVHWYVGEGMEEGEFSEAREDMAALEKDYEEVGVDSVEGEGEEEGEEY
T1 sequence (P02550 whole entry, looked up): as above

The term IC50 denotes the concentration needed to halve the response being measured. On to `C[C@H]1C[C@H]1C1=N[C@H](/C=C\CCCc2ccccc2)CS1`, for which the IC50 in test [1] was 45.2 µg/mL (≈ 158 µM); in test [2] it was 24 µg/mL (≈ 84 µM); in test [4], more than 50 µM; in test [5] it was 19.3 µg/mL (≈ 67.6 µM). Also, the Activity in test [3] is 93%.

For the compound `C[C@H]1C[C@H]1C1=N[C@H](/C=C\CCc2ccccc2)CS1`, the IC50 in test [1] was 34.1 µg/mL (≈ 125 µM); in test [2] it was 30.1 µg/mL (≈ 111 µM); in test [4] it was more than 50 µM; in test [5], 19.6 µg/mL (≈ 72.3 µM). In test [3], the Activity came out at 71%.

With `C/C=C/CC/C=C\[C@@H]1CSC([C@@H]2C[C@@H]2C)=N1`, the IC50 in test [1] was 31.7 µg/mL (≈ 135 µM); in test [2], 37.7 µg/mL (≈ 160 µM); in test [4] it was more than 50 µM; in test [5], 33.7 µg/mL (≈ 143 µM). The compound further displayed an Activity in test [3] of 84%.

Take `C=CC[C@@H](CC/C(C)=C/C=C/CC/C=C\[C@@H]1CSC([C@@H]2C[C@@H]2C)=N1)OC` [CURACIN A]: the IC50 is 0.89 µg/mL (≈ 2.38 µM) in test [1], 19.6 µg/mL (≈ 52.5 µM) in test [2], 2.5 µM in test [4] and less than 0.2 µg/mL in test [5].

For the compound `CC(C)=C/C=C/CC/C=C\[C@@H]1CSC([C@@H]2C[C@@H]2C)=N1`, in test [3], the Activity came to 100%. In test [4], this compound gave an IC50 of more than 50 µM.

On to `CCCCCCCc1cccc(CC/C=C\[C@@H]2CSC([C@@H]3C[C@@H]3C)=N2)c1`, for which the IC50 in test [1] was 64.7 µg/mL (≈ 175 µM); in test [2] it was 35.5 µg/mL (≈ 96.1 µM); in test [4], more than 50 µM; in test [5], 69.3 µg/mL (≈ 187 µM). This compound came in with an Activity in test [3] of 85%.

`C=CC[C@@H](CC/C(C)=C/C=C/CC/C=C\[C@@H]1CSC(C2CC2C)=N1)OC` (single isomer, unassigned) [CURACIN A] returned an IC50 in test [6] of 2.5 µM.

With `CCCCCCc1ccc(CC/C=C\[C@@H]2CSC([C@@H]3C[C@@H]3C)=N2)cc1`, the IC50 is 76.5 µg/mL (≈ 215 µM) in test [1], 50.2 µg/mL (≈ 141 µM) in test [2], more than 50 µM in test [4] and 42.5 µg/mL (≈ 119 µM) in test [5]. The compound further registered an Activity in test [3] of 95%.

Turning to `CCCCCCCCCCCC/C=C\[C@@H]1CSC([C@@H]2C[C@@H]2C)=N1`, the IC50 in test [1] is 54.1 µg/mL (≈ 161 µM); in test [2], 77.2 µg/mL (≈ 230 µM); in test [4], more than 50 µM; in test [5], 84.9 µg/mL (≈ 253 µM). The compound also yielded an Activity in test [3] of 100%.
